According to ChEMBL document CHEMBL2073748, “Na(+)-dependent carnitine transport by organic cation transporter (OCTN2): its pharmacological and toxicological relevance” (J Pharmacol Exp Ther, 1999):
Non-standard residues stand in square brackets, D forms with d. Residues, ends and D or L forms follow the SMILES beside them. Sar = CNCC(=O)O

Experiments:
[1] = biological target: T1, Organic cation/carnitine transporter 2 (Homo sapiens, UniProt O76082); experiment: TP_TRANSPORTER: inhibition of Carnitine uptake (Carnitine: 0.010? uM, Gly-Sar: 500 uM) in OCTN2-expressing HEK293 cells; format: functional, cell-based; conditions: hek293, 500 µM
T1 sequence (O76082 whole entry): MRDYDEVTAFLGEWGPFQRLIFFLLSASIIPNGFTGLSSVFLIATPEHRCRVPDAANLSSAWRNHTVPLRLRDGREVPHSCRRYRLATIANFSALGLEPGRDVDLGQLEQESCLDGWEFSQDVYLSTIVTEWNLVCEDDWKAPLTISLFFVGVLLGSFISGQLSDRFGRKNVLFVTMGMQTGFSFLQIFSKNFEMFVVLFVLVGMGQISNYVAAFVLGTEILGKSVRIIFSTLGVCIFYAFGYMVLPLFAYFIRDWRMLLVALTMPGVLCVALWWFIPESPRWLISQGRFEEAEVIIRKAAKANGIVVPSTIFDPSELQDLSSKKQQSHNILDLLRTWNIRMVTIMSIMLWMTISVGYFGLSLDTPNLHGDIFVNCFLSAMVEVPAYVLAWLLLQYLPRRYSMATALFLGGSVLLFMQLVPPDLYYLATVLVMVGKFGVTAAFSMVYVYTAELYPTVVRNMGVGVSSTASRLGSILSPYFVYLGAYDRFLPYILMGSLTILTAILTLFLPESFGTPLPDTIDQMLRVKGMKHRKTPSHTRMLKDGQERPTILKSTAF

[2] = biological target: T2, OCTN2 (organic cation/carnitine transporter 2) (Homo sapiens, UniProt O76082); experiment: TP_TRANSPORTER: inhibition of Carnitine uptake (Carnitine: 0.010? uM, GPFX: 500 uM) in OCTN2-expressing HEK293 cells; format: functional, cell-based; parameters: scale not given: the % may be the effect or the level left; conditions: HEK293 cells that express OCTN2, probe Carnitine, read-out: Activity
T2 sequence (O76082 whole entry): T1 sequence (O76082 whole entry)

[3] = biological target: T1, Organic cation/carnitine transporter 2; experiment: TP_TRANSPORTER: inhibition of Carnitine uptake (Carnitine: 0.010? uM, Guanidine: 500 uM) in OCTN2-expressing HEK293 cells; format: functional, cell-based; conditions: hek293, 500 µM
[4] = biological target: T1, Organic cation/carnitine transporter 2; experiment: (§1) TP_TRANSPORTER: uptake in OCTN2-expressing HEK293 cells; format: functional, cell-based
[5] = biological target: T2, OCTN2 (organic cation/carnitine transporter 2); experiment: TP_TRANSPORTER: inhibition of Carnitine uptake (Carnitine: 0.010? uM, LFLX: 500 uM) in OCTN2-expressing HEK293 cells; format: functional, cell-based; parameters: scale not given: the % may be the effect or the level left; conditions: HEK293 cells that express OCTN2, probe Carnitine, read-out: Activity
[6] = biological target: T2, OCTN2 (organic cation/carnitine transporter 2); experiment: in vitro; conditions: HEK293 cells that express OCTN2, probe Carnitine
Description: TP_TRANSPORTER: inhibition of Carnitine uptake (Carnitine: 0.010? uM, Nicotine: 500 uM) in OCTN2-expressing HEK293 cells

[7] = biological target: T2, OCTN2 (organic cation/carnitine transporter 2); experiment: TP_TRANSPORTER: inhibition of Carnitine uptake (Carnitine: 0.010? uM, OFLX: 500 uM) in OCTN2-expressing HEK293 cells; format: functional, cell-based; parameters: scale not given: the % may be the effect or the level left; conditions: HEK293 cells that express OCTN2, probe Carnitine, read-out: Activity
[8] = biological target: T2, OCTN2 (organic cation/carnitine transporter 2); experiment: TP_TRANSPORTER: inhibition of Carnitine uptake (Carnitine: 0.010? uM, Probenecid: 500 uM) in OCTN2-expressing HEK293 cells; format: functional, cell-based; parameters: scale not given: the % may be the effect or the level left; conditions: HEK293 cells that express OCTN2, probe Carnitine, read-out: Activity
[9] = biological target: T2, OCTN2 (organic cation/carnitine transporter 2); experiment: TP_TRANSPORTER: inhibition of Carnitine uptake (Carnitine: 0.010? uM, Procainamide: 500 uM) in OCTN2-expressing HEK293 cells; format: functional, cell-based; parameters: scale not given: the % may be the effect or the level left; conditions: HEK293 cells that express OCTN2, probe Carnitine, read-out: Activity
[10] = biological target: T2, OCTN2 (organic cation/carnitine transporter 2); experiment: TP_TRANSPORTER: inhibition of Carnitine uptake (Carnitine: 0.010? uM, Pyrilamine: 500 uM) in OCTN2-expressing HEK293 cells; format: functional, cell-based; parameters: scale not given: the % may be the effect or the level left; conditions: HEK293 cells that express OCTN2, probe Carnitine, read-out: Activity
[11] = biological target: T2, OCTN2 (organic cation/carnitine transporter 2); experiment: TP_TRANSPORTER: inhibition of Carnitine uptake (Carnitine: 0.010? uM, Quinidine: 500 uM) in OCTN2-expressing HEK293 cells; format: functional, cell-based; parameters: scale not given: the % may be the effect or the level left; conditions: HEK293 cells that express OCTN2, probe Carnitine, read-out: Activity
[12] = biological target: T2, OCTN2 (organic cation/carnitine transporter 2); experiment: TP_TRANSPORTER: inhibition of Carnitine uptake (Carnitine: 0.010? uM, Quinine: 500 uM) in OCTN2-expressing HEK293 cells; format: functional, cell-based; parameters: scale not given: the % may be the effect or the level left; conditions: HEK293 cells that express OCTN2, probe Carnitine, read-out: Activity
[13] = biological target: T2, OCTN2 (organic cation/carnitine transporter 2); experiment: in vitro; conditions: HEK293 cells that express OCTN2, probe Carnitine; remark: listed apart in the source
Description: TP_TRANSPORTER: inhibition of Carnitine uptake (Carnitine: 0.010? uM, TEA: 500 uM) in OCTN2-expressing HEK293 cells

[14] = biological target: T2, OCTN2 (organic cation/carnitine transporter 2); experiment: TP_TRANSPORTER: inhibition of Carnitine uptake (Carnitine: 0.010? uM, Trimethyllysine: 500 uM) in OCTN2-expressing HEK293 cells; format: functional, cell-based; parameters: scale not given: the % may be the effect or the level left; conditions: HEK293 cells that express OCTN2, probe Carnitine, read-out: Activity
[15] = biological target: T2, OCTN2 (organic cation/carnitine transporter 2); experiment: TP_TRANSPORTER: inhibition of Carnitine uptake (Carnitine: 0.010? uM, Valproic acid: 500 uM) in OCTN2-expressing HEK293 cells; format: functional, cell-based; parameters: scale not given: the % may be the effect or the level left; conditions: HEK293 cells that express OCTN2, probe Carnitine, read-out: Activity
[16] = biological target: T2, OCTN2 (organic cation/carnitine transporter 2); experiment: TP_TRANSPORTER: inhibition of Carnitine uptake (Carnitine: 0.010? uM, Verapamil: 500 uM) in OCTN2-expressing HEK293 cells; format: functional, cell-based; parameters: scale not given: the % may be the effect or the level left; conditions: HEK293 cells that express OCTN2, probe Carnitine, read-out: Activity
[17] = biological target: T1, Organic cation/carnitine transporter 2; experiment: TP_TRANSPORTER: inhibition of Carnitine uptake (Carnitine: 0.010? uM, AZT: 500 uM) in OCTN2-expressing HEK293 cells; format: functional, cell-based; conditions: hek293, 500 µM
[18] = substrate: CC(=O)O[C@H](CC(=O)[O-])C[N+](C)(C)C; experiment: as §1; format: functional, cell-based
[19] = substrate: C[N+](C)(C)CC(O)CC(=O)[O-]; experiment: TP_TRANSPORTER: uptake, D-Carnitine in OCTN2-expressing HEK293 cells; format: functional, cell-based

With `CN(CC(=O)O)C(=O)CN` [GLYCYLSARCOSINE] (H-Gly-[Sar]-OH) the Activity [1] was “is not an inhibitor [-]”.

In the case of `Cc1c(F)c(N2CCNC(C)C2)cc2c1c(=O)c(C(=O)O)cn2C1CC1` (centres undefined) [GREPAFLOXACIN], the activity at 500 µM [2] is reported as 68.6%.

`N=C(N)N` [GUANIDINE] was tested, and the Activity [3] was “is not an inhibitor [-]” and the Activity [4] was “is not a substrate [-]”.

`CCn1cc(C(=O)O)c(=O)c2cc(F)c(N3CCNC(C)C3)c(F)c21` (centres undefined) [LOMEFLOXACIN] was tested, and the activity at 500 µM [5] was 88.6%.

For `CN1CCC[C@H]1c1cccnc1` [NICOTINE], the activity at 500 µM [6] was 82.6%.

Molecule `CC1COc2c(N3CCN(C)CC3)c(F)cc3c(=O)c(C(=O)O)cn1c23` (centres undefined) [OFLOXACIN] has an activity at 500 µM [7] of 76.8%.

Molecule `CCCN(CCC)S(=O)(=O)c1ccc(C(=O)O)cc1` [PROBENECID] has an activity at 500 µM [8] of 77.4%.

Molecule `CCN(CC)CCNC(=O)c1ccc(N)cc1` [PROCAINAMIDE] has an activity at 500 µM [9] of 65.8%.

With `COc1ccc(CN(CCN(C)C)c2ccccn2)cc1` [PYRILAMINE] the activity at 500 µM [10] was 38.6% and the Activity [4] was “substrate [+]”.

With `C=C[C@H]1C[N@@]2CC[C@H]1C[C@@H]2[C@@H](O)c1ccnc2ccc(OC)cc12` [QUINIDINE] the activity at 500 µM [11] was 9.1% and the Activity [4] was “substrate [+]”.

Work on `C=C[C@H]1C[N@@]2CC[C@H]1C[C@H]2[C@H](O)c1ccnc2ccc(OC)cc12` [QUININE] yielded an activity at 500 µM [12] of 7.1%.

`CC[N+](CC)(CC)CC` [TETRYLAMMONIUM] was tested, and the activity at 500 µM [13] was 53.6% and the Activity [4] was “substrate [+]”.

Work on `C[N+](C)(C)CCCC[C@H](N)C(=O)O` [TRIMETHYLLYSINE] yielded an activity at 500 µM [14] of 69%.

For `CCCC(CCC)C(=O)O` [VALPROIC ACID], the activity at 500 µM [15] was 82.3% and the Activity [4] was “substrate [+]”.

For `COc1ccc(CCN(C)CCCC(C#N)(c2ccc(OC)c(OC)c2)C(C)C)cc1OC` (centres undefined) [VERAPAMIL], the activity at 500 µM [16] was 2.4% and the Activity [4] was “substrate [+]”.

With `Cc1cn([C@H]2C[C@H](N=[N+]=[N-])[C@@H](CO)O2)c(=O)[nH]c1=O` [ZIDOVUDINE] the Activity [17] was “is not an inhibitor [-]”.

B1: Organic cation/carnitine transporter 2 (Homo sapiens) (protein)
chain: T1 sequence (O76082 whole entry)
B1 was tested, and the Km [18] was 8.5 µM and the Km [19] was 10.9 µM.
